Read-outs that look alike come from different tables or passages of the source.
Key:
Test in all cases: biochemical
Set-up in all cases: DiscoveRx KINOMEscan active site-directed competition binding; percent of control kinase bound to immobilised ligand
ACVR2A = ACVR2A (Homo sapiens, UniProt P27037)
MAP3K15 = molecular target: T1, MAP3K15 (Homo sapiens, UniProt Q6ZN16)
T1 sequence (Q6ZN16 1-1313): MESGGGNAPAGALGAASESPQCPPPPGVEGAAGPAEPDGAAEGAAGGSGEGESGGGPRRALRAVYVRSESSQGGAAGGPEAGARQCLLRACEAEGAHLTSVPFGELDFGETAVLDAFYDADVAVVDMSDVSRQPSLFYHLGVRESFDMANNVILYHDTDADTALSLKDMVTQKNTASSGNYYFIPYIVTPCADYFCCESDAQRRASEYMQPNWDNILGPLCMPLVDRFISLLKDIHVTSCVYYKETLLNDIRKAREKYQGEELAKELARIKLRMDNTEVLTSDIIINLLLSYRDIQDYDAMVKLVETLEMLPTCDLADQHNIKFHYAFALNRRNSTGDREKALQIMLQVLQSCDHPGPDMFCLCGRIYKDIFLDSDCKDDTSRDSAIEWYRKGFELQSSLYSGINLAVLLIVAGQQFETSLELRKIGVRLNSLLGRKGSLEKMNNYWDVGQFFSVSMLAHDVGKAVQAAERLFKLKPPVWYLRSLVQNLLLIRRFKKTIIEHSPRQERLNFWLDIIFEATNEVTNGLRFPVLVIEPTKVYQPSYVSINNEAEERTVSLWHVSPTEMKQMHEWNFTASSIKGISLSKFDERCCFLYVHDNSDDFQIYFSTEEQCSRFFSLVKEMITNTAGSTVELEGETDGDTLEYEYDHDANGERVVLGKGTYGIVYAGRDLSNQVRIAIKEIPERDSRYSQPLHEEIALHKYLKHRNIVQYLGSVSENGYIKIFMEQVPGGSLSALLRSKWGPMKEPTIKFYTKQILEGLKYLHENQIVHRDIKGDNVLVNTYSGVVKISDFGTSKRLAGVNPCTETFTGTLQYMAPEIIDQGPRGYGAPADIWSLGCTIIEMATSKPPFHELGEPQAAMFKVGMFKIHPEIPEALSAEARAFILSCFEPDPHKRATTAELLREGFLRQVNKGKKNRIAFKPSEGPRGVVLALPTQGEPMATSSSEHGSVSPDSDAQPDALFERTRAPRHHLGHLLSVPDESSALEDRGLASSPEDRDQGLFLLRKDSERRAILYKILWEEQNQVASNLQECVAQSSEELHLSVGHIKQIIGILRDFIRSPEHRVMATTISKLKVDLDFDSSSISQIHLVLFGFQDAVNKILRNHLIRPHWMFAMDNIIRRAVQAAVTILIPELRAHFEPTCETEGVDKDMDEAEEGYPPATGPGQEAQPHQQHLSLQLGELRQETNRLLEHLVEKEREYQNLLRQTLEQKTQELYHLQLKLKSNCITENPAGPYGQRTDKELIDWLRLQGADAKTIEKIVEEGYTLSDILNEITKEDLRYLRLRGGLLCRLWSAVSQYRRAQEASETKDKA

MARK3 = MARK3 (Homo sapiens, UniProt P27448)
NEK9 = molecular target: T2, NEK9 (Homo sapiens, UniProt Q8TD19)
T2 sequence (Q8TD19 1-979): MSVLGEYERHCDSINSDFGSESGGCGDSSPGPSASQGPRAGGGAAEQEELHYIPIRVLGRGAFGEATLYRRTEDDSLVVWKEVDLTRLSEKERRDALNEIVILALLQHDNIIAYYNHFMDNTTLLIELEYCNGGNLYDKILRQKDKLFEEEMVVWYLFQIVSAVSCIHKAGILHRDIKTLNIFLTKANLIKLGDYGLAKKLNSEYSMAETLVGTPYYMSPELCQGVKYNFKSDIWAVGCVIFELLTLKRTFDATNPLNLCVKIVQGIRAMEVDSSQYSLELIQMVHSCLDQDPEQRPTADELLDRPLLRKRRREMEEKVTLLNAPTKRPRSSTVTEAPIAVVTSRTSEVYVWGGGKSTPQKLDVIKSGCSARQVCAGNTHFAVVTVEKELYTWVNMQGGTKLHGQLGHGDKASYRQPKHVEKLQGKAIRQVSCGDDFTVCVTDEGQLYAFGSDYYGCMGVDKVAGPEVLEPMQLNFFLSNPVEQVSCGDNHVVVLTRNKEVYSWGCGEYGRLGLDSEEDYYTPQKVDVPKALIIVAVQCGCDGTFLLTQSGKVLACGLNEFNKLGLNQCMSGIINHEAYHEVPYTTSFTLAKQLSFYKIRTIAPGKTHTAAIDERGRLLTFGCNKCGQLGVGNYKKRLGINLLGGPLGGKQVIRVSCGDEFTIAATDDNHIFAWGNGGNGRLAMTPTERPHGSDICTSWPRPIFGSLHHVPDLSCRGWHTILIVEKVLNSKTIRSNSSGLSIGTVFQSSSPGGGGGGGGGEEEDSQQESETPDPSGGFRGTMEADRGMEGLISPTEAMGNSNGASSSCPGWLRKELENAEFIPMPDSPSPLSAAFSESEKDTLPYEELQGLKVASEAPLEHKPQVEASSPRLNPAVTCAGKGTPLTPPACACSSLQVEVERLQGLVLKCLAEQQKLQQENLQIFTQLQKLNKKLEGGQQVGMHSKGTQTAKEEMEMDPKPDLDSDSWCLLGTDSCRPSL

PIK3CA(E545A) = PIK3CA(E545A) (Homo sapiens, UniProt P42336, E545A)
PAK3 = PAK3 (Homo sapiens, UniProt O75914)
[1] = read-out: Talazoparib (BMN 673) / %Ctrl @ 10000nM
[2] = read-out: Olaparib / %Ctrl @ 10000nM
[3] = read-out: Niraparib (MK-4827) / %Ctrl @ 10000nM
[4] = read-out: Rucaparib / %Ctrl @ 10000nM, binding competition, % of control

Chain of ACVR2A (P27037 whole entry): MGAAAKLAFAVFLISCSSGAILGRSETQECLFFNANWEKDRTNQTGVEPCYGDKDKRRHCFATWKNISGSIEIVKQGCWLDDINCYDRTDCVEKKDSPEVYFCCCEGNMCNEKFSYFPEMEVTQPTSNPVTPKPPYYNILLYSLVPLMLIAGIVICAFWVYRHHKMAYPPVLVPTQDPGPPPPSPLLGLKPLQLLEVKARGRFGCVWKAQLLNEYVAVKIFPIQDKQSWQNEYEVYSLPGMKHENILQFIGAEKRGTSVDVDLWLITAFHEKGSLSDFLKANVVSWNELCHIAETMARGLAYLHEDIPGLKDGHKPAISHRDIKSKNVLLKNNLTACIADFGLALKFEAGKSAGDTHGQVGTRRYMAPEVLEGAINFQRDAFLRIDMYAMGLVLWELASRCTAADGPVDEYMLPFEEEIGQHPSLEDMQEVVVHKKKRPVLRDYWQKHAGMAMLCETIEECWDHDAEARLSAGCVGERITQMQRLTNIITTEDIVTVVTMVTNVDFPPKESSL
Chain of MARK3 (P27448 whole entry): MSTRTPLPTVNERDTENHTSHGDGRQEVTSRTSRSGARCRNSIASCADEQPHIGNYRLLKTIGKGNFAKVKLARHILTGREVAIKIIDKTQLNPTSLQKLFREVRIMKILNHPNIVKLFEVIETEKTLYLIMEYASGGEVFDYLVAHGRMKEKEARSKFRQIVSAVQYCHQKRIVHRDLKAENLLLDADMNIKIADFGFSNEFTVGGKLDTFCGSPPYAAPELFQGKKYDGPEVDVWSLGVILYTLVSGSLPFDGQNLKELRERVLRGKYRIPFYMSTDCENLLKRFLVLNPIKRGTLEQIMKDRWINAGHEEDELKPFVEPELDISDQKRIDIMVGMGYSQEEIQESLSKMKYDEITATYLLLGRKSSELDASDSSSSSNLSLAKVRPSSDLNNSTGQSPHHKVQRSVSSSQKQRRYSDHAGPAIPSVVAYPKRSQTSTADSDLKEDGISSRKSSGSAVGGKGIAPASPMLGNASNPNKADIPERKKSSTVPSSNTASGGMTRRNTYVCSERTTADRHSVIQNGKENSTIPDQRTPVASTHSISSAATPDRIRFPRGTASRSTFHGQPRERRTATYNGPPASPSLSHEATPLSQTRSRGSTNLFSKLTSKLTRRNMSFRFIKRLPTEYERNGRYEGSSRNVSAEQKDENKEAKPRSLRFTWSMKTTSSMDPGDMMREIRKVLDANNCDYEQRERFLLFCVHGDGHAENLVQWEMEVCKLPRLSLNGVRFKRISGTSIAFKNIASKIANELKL
Chain of PIK3CA(E545A) (P42336 whole entry E545A): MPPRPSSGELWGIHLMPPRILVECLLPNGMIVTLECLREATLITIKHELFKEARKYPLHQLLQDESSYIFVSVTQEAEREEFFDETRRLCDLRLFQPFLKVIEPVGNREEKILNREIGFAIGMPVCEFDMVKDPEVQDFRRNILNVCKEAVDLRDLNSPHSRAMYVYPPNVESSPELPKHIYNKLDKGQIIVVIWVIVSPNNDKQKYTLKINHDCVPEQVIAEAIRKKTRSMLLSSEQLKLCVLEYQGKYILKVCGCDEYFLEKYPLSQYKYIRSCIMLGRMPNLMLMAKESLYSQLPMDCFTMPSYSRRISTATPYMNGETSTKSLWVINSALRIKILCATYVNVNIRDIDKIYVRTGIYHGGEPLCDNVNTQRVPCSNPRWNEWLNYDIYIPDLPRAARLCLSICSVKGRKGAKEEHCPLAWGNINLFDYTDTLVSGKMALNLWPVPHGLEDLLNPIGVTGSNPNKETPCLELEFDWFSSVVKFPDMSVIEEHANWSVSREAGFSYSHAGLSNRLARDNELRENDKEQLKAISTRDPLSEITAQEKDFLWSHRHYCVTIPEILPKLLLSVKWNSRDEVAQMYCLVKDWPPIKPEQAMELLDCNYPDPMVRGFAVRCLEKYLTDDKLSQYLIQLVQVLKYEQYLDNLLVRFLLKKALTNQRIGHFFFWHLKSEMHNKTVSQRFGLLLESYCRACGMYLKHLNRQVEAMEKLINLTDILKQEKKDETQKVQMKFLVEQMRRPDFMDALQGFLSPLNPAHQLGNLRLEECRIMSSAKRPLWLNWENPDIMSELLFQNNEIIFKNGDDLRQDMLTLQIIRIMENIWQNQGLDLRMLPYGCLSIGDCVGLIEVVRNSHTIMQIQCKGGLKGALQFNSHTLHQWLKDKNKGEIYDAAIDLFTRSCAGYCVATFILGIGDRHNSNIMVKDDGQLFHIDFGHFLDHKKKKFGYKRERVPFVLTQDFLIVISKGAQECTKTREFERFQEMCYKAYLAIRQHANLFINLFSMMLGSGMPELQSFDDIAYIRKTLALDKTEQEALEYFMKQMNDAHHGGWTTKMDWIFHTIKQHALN
Chain of PAK3 (O75914 whole entry): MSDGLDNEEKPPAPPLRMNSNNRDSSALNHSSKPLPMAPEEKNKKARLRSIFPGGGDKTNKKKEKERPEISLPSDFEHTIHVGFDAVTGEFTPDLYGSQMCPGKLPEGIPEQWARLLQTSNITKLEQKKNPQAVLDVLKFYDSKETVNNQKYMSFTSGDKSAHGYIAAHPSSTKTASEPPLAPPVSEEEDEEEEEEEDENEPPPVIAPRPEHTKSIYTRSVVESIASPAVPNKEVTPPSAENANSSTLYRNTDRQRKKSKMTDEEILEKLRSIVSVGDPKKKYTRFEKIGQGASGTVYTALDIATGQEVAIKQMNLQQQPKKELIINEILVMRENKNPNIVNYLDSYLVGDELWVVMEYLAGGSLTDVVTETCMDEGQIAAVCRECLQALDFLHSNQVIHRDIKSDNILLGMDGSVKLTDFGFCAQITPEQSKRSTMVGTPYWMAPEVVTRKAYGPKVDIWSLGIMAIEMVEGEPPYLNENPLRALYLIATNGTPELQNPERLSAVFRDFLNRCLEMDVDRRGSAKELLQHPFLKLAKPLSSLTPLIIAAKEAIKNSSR

`Cn1ncnc1[C@H]1c2n[nH]c(=O)c3cc(F)cc(c23)N[C@@H]1c1ccc(F)cc1` [Talazoparib] showed a percent of control binding at 10 µM (ACVR2A; [1]) of 100%, a percent of control binding at 10 µM (MAP3K15; [1]) of 100% and a percent of control binding at 10 µM (MARK3; [1]) of 98%. For the same molecule, the percent of control binding at 10 µM (NEK9; [1]) was 99%, the percent of control binding at 10 µM (PIK3CA(E545A); [1]) was 73% and the percent of control binding at 10 µM (PAK3; [1]) was 100%.
`O=C(c1cc(Cc2n[nH]c(=O)c3ccccc23)ccc1F)N1CCN(C(=O)C2CC2)CC1` [Olaparib] showed a percent of control binding at 10 µM (ACVR2A; [2]) of 95%, a percent of control binding at 10 µM (MAP3K15; [2]) of 100% and a percent of control binding at 10 µM (MARK3; [2]) of 96%. For the same molecule, the percent of control binding at 10 µM (NEK9; [2]) was 100%, the percent of control binding at 10 µM (PIK3CA(E545A); [2]) was 90% and the percent of control binding at 10 µM (PAK3; [2]) was 96%.
`NC(=O)c1cccc2cn(-c3ccc([C@@H]4CCCNC4)cc3)nc12` [Niraparib] gave a percent of control binding at 10 µM (ACVR2A; [3]) of 99%, a percent of control binding at 10 µM (MAP3K15; [3]) of 64% and a percent of control binding at 10 µM (MARK3; [3]) of 91%. It also gave a percent of control binding at 10 µM (NEK9; [3]) of 100%, a percent of control binding at 10 µM (PIK3CA(E545A); [3]) of 98% and a percent of control binding at 10 µM (PAK3; [3]) of 67%.
Molecule `CNCc1ccc(-c2[nH]c3cc(F)cc4c3c2CCNC4=O)cc1` [Rucaparib] has a percent of control binding at 10 µM (ACVR2A; [4]) of 100%, a percent of control binding at 10 µM (MAP3K15; [4]) of 73% and a percent of control binding at 10 µM (MARK3; [4]) of 100%. It also gave a percent of control binding at 10 µM (NEK9; [4]) of 100%, a percent of control binding at 10 µM (PIK3CA(E545A); [4]) of 85% and a percent of control binding at 10 µM (PAK3; [4]) of 95%.

Source: PMC7026418, “The kinase polypharmacology landscape of clinical PARP inhibitors” (Scientific Reports, 2020)
